Values of other authors as cited in patent US12011496B2, “Topical macqui berry formulation” (Tracie Martyn International, Inc., priority 2005, dated 2024).

Experiments:
[1] = animal studies
[2] = antioxidant properties
[3] = using only natural ingredients (botanicals, antioxidants, coffe oil and microfine zinc oxide)

## NCCC(=O)N[C@@H](Cc1cnc[nH]1)C(=O)O [Carnosine, β-alanyl-L-histidine]
[1]
  safety at dosages above 500 mg/kg body weight: safe

## O=C(/C=C/c1ccc(O)c(O)c1)O[C@H](Cc1ccc(O)c(O)c1)C(=O)O [Rosmarinic acid]
[2]
  IC50: 740 nM

## COc1ccc(C=CC(=O)OCCC(C)C)cc1 [isoamyl-p-methoxycinnamate]
[3]
  spf: greater than 30

## C=CCc1cc(OC)c2c(c1)OCO2 [myristicin, 3-methoxy,4,5-methylendioxy-allylbenzene]
other
  oral psychotropic dose: 400 mg
